The source of these data is patent US20230104936A1, “TRPML MODULATORS” (Casma Therapeutics, Inc., priority 2019, published 2023).

For the assay, the system named is TFEB. The assay can be described thus: TFEB nuclear translocation assay, HeLa wt cells. The class given is cell-based. As to conditions: 2 hrs compound treatment, Table 1 does not say HeLa wt or TRPML1 KO. A digest of the protocol:
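Read-out is the ratio of TFEB immunofluorescence in the nucleus to that in a ring just outside it, measured by automated imaging. HeLa wt cells received compounds for 2 hrs at 37° C before fixation and staining; AC50 values come from this ratio.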

In turn, `CC(C)(C)C(=O)N1CCN(c2ccccc2NS(=O)(=O)c2ccc(S(F)(F)(F)(F)F)cc2)CC1` [Compound A-575, N-{2-[4-(2,2-dimethylpropanoyl)piperazin-1-yl]phenyl}-4-(pentafluoro-λ^6-sulfanyl)benzene-1-sulfonamide] showed an AC50 (Homo sapiens, HeLa, 2 h) of 8.01 to 9.99 µM.

`CC(c1cccc(F)c1N1CCCCC1)S(=O)(=O)c1ccc2c(c1)CCS2(=N)=O` (single isomer, unassigned) [Compound A-960]: the AC50 is ≥ 10 µM. `Cc1cc(C)cc(CS(=O)(=O)Nc2ccccc2N2CCN(C(=O)C(C)(C)C)CC2)c1` [Compound A-500, 1-(3,5-dimethylphenyl)-N-{2-[4-(2,2-dimethylpropanoyl)piperazin-1-yl]phenyl}methanesulfonamide] came in with an AC50 (Homo sapiens, HeLa, 2 h) of 2.01 to 8 µM. Still for that read-out and setting: then `Cc1cccc(CS(=O)(=O)Nc2ccccc2N2CCC3(CC2)COC(C)(C)C3)c1` [Compound A-664, N-(2-{3,3-dimethyl-2-oxa-8-azaspiro[4.5]decan-8-yl}phenyl)-1-(3-methylphenyl)methanesulfonamide], with ≤ 2 µM. Still for that read-out and setting: then `O=S1(=O)CCC2(CC1)CN(c1ccc(Cl)cc1NS(=O)(=O)c1ccc3c(c1)CCC3)CCO2` [Compound A-317, N-(5-chloro-2-{9,9-dioxo-1-oxa-9λ^6-thia-4-azaspiro[5.5]undecan-4-yl}phenyl)-2,3-dihydro-1H-indene-5-sulfonamide], with 2.01 to 8 µM; and `CN(C)S(=O)(=O)c1ccc(S(=O)(=O)Nc2ccccc2N2CCN(C(=O)C(C)(C)C)CC2)cc1` [Compound A-225, N4-{2-[4-(2,2-dimethylpropanoyl)piperazin-1-yl]phenyl}-N1,N1-dimethylbenzene-1,4-disulfonamide], with 2.01 to 8 µM; and `Cc1cccc(S(=O)(=O)Nc2ccccc2N2CCC3(CC2)COC(C)(C)C3)c1` [Compound A-665, N-(2-{3,3-dimethyl-2-oxa-8-azaspiro[4.5]decan-8-yl}phenyl)-3-methylbenzene-1-sulfonamide], with 2.01 to 8 µM. Take `CN(C)S(=O)(=O)c1ccc(S(=O)(=O)Nc2ccccc2N2CCC(O)(C(C)(C)C)CC2)cc1` [Compound A-471, N1-(2-(4-(tert-butyl)-4-hydroxypiperidin-1-yl)phenyl)-N4,N4-dimethylbenzene-1,4-disulfonamide]: the AC50 (Homo sapiens, HeLa, 2 h) was ≤ 2 µM. Regarding `Cn1cnc(S(=O)(=O)Nc2ccccc2N2CCN(c3ccc(Cl)cc3F)CC2)c1` [Compound A-2, N-{2-[4-(4-chloro-2-fluorophenyl)piperazin-1-yl]phenyl}-1-methyl-1H-imidazole-4-sulfonamide], the half-maximal activity concentration (AC50) (Homo sapiens, HeLa, 2 h) was ≤ 2 µM. On the same count and under the same terms, for `CN(C)S(=O)(=O)c1ccc(S(=O)(=O)Nc2nn(C)cc2C2CCN(c3ccc(Cl)cc3F)CC2)cc1` [Compound A-55, N1-(4-(1-(4-chloro-2-fluorophenyl)piperidin-4-yl)-1-methyl-1H-pyrazol-3-yl)-N4,N4-dimethylbenzene-1,4-disulfonamide] the value was ≤ 2 µM; for `COC1(C(=O)N2CCN(c3ccccc3NS(=O)(=O)c3ccc(S(=O)(=O)N(C)C)cc3)CC2)CCCC1` [Compound A-444, N4-{2-[4-(1-methoxycyclopentanecarbonyl)piperazin-1-yl]phenyl}-N1,N1-dimethylbenzene-1,4-disulfonamide], ≤ 2 µM.

As for `CC1(C)CC2(CCN(c3ccccc3NS(=O)(=O)c3ccc(C4CC4)s3)CC2)CO1` [Compound A-674, 5-cyclopropyl-N-(2-{3,3-dimethyl-2-oxa-8-azaspiro[4.5]decan-8-yl}phenyl)thiophene-2-sulfonamide], for the setting “Homo sapiens, HeLa, 2 h”, the AC50 was ≤ 2 µM. Under “Homo sapiens, HeLa, 2 h”, `COCCN1CCN(c2ccccc2NS(=O)(=O)c2ccc(S(=O)(=O)N(C)C)cc2)CC1` [Compound A-553, N4-{2-[4-(2-methoxyethyl)piperazin-1-yl]phenyl}-N1,N1-dimethylbenzene-1,4-disulfonamide] displayed an AC50 of 2.01 to 8 µM. Still for that read-out and setting: for `Cc1cc(Cl)c(N2CCOCC2)c(NS(=O)(=O)c2ccc3c(c2)CCC3)c1` [Compound A-887, N-[3-chloro-5-methyl-2-(morpholin-4-yl)phenyl]-2,3-dihydro-1H-indene-5-sulfonamide] the value was ≤ 2 µM.

Molecule `CN1Cc2ccccc2C2(CCN(c3ccccc3NS(=O)(=O)c3ccc(S(C)(=O)=O)cc3)CC2)C1` [Compound A-398, 4-methanesulfonyl-N-(2-{2-methyl-2,3-dihydro-1H-spiro[isoquinoline-4,4′-piperidin]-1′-yl}phenyl)benzene-1-sulfonamide; formic acid] displayed a half-maximal activity concentration (AC50) (Homo sapiens, HeLa, 2 h) of 2.01 to 8 µM. Still for that read-out and setting: for `CC1(C)CC2(CCN(c3ccccc3NS(=O)(=O)c3cccc(C4CC4)c3)CC2)CO1` [Compound A-669, 3-cyclopropyl-N-(2-{3,3-dimethyl-2-oxa-8-azaspiro[4.5]decan-8-yl}phenyl)benzene-1-sulfonamide] the value was ≤ 2 µM.

Regarding `COCC1(C)CCN(c2ccccc2NS(=O)(=O)Cc2ccccc2C)CC1` [Compound A-592, N-{2-[4-(methoxymethyl)-4-methylpiperidin-1-yl]phenyl}-1-(2-methylphenyl)methanesulfonamide], the AC50 (Homo sapiens, HeLa, 2 h) fell in the range of 8.01 to 9.99 µM.

`CC(c1cccc(F)c1N1CCC(CN2C[C@@H](C)O[C@@H](C)C2)CC1)S(=O)(=O)c1ccc2c(c1)CCC2` (single isomer, unassigned) [Compound A-828]: the half-maximal activity concentration (AC50) (Homo sapiens, HeLa, 2 h) was ≤ 2 µM. Same read-out and setting: for `COCC1(C)CCN(c2ccccc2NS(=O)(=O)c2cccc(C(C)(C)OC)c2)CC1` [Compound A-633, N-{2-[4-(methoxymethyl)-4-methylpiperidin-1-yl]phenyl}-3-(2-methoxypropan-2-yl)benzene-1-sulfonamide] the value was 2.01 to 8 µM. Still for that read-out and setting: then `CC(C)OC(=O)N1CCN(c2ccccc2NS(=O)(=O)c2ccc(S(=O)(=O)N(C)C)cc2)CC1` [Compound A-336, propan-2-yl 4-{2-[4-(dimethylsulfamoyl)benzenesulfonamido]phenyl}piperazine-1-carboxylate], with ≤ 2 µM; and `CN(C)S(=O)(=O)c1ccc(S(=O)(=O)n2nc(C3CCN(c4c(F)cccc4F)CC3)c3c2CCCN3)cc1` [Compound A-503, 4-((3-(1-(2,6-difluorophenyl)piperidin-4-yl)-4,5,6,7-tetrahydro-1H-pyrazolo[4,3-b]pyridin-1-yl)sulfonyl)-N,N-dimethylbenzenesulfonamide], with ≤ 2 µM; and `CN(C)S(=O)(=O)c1ccc(S(=O)(=O)Nc2ccccc2N2CCC(c3ccccc3F)CC2)cc1` [Compound A-10, N4-{2-[4-(2-fluorophenyl)piperidin-1-yl]phenyl}-N1,N1-dimethylbenzene-1,4-disulfonamide], with ≤ 2 µM. Still for that read-out and setting: for `COC1(C)CCN(c2ccccc2NS(=O)(=O)c2ccc(S(=O)(=O)N(C)C)cc2)CC1` [Compound A-454, N4-[2-(4-methoxy-4-methylpiperidin-1-yl)phenyl]-N1,N1-dimethylbenzene-1,4-disulfonamide] the value was ≤ 2 µM; for `CN(C)S(=O)(=O)c1ccc(S(=O)(=O)Nc2ccccc2N2CCCC3(CCCOC3)C2)cc1` (stereo not drawn) [Compound A-511, N1,N1-dimethyl-N4-(2-{2-oxa-8-azaspiro[5.5]undecan-8-yl}phenyl)benzene-1,4-disulfonamide], ≤ 2 µM. `C[C@H]1COC[C@H](C)N1CC1CCN(c2c(F)cccc2NS(=O)(=O)c2ccc(S(=O)(=O)N(C)C)cc2)CC1` (racemic) [Compound A-763, N4-(2-{4-[(3,5-dimethylmorpholin-4-yl)methyl]piperidin-1-yl}-3-fluorophenyl)-N1,N1-dimethylbenzene-1,4-disulfonamide]: the AC50 (Homo sapiens, HeLa, 2 h) was ≤ 2 µM. In the case of `CN(C)S(=O)(=O)c1ccc(S(=O)(=O)Nc2ccccc2N2CCC(O)(c3ccccc3)CC2)cc1` [Compound A-148, N4-[2-(4-hydroxy-4-phenylpiperidin-1-yl)phenyl]-N1,N1-dimethylbenzene-1,4-disulfonamide], the AC50 (Homo sapiens, HeLa, 2 h) is ≤ 2 µM. On the same count and under the same terms, then `CC(C1CCN(c2c(F)cccc2NS(=O)(=O)c2ccc(S(=N)(=O)N(C)C)cc2)CC1)N1C[C@@H](C)O[C@@H](C)C1` (single isomer, unassigned) [Compound A-871], with ≤ 2 µM; and `CN(C)S(=O)(=O)c1ccc(S(=O)(=O)Nc2cccc(F)c2N2CCC3(CCN3)CC2)cc1` [Compound A-816, N4-(2-{1,7-diazaspiro[3.5]nonan-7-yl}-3-fluorophenyl)-N1,N1-dimethylbenzene-1,4-disulfonamide], with ≥ 10 µM. On the same count and under the same terms, then `CN(C)S(=O)(=O)c1ccc(S(=O)(=O)Nc2ccccc2N2CCN(C(=O)C3(C)CCCCO3)CC2)cc1` (stereo not drawn) [Compound A-448, N1,N1-dimethyl-N4-{2-[4-(2-methyloxane-2-carbonyl)piperazin-1-yl]phenyl}benzene-1,4-disulfonamide], with ≤ 2 µM; and `CN(C)S(=O)(=O)c1ccc(S(=O)(=O)Nc2ccccc2N2CCC(O)(c3ccc(F)cc3F)CC2)cc1` [Compound A-141, N4-{2-[4-(2,4-difluorophenyl)-4-hydroxypiperidin-1-yl]phenyl}-N1,N1-dimethylbenzene-1,4-disulfonamide], with ≤ 2 µM; and `Cc1nn(S(=O)(=O)c2ccc(S(=O)(=O)N(C)C)cc2)cc1C1CCN(c2ccc(Cl)cc2F)CC1` [Compound A-38, 4-({4-[1-(4-chloro-2-fluorophenyl)piperidin-4-yl]-3-methyl-1H-pyrazol-1-yl}sulfonyl)-N,N-dimethylbenzene-1-sulfonamide], with ≤ 2 µM. Same read-out and setting: then `CN(C)S(=O)(=O)c1ccc(S(=O)(=O)n2cnc(N3CCC(c4ccc(Cl)cc4F)CC3)n2)cc1` [Compound A-62, 4-((3-(4-(4-chloro-2-fluorophenyl)piperidin-1-yl)-1H-1,2,4-triazol-1-yl)sulfonyl)-N,N-dimethylbenzenesulfonamide], with 8.01 to 9.99 µM.

On to `CN(C)S(=O)(=O)c1ccc(S(=O)(=O)Nc2ccccc2N2CCCN(C3CC3)CC2)cc1` [Compound A-484, N4-[2-(4-cyclopropyl-1,4-diazepan-1-yl)phenyl]-N1,N1-dimethylbenzene-1,4-disulfonamide], for which the AC50 (Homo sapiens, HeLa, 2 h) lay in the range of 2.01 to 8 µM.
